Experiments:
[1] = test system: pancreatic exocrine function; assay: 13C-dipeptide breath test in normal rats (Δ13C in exhaled CO2 after oral administration); type: in vivo, rat; conditions: for Δ^13C(‰) peak value / Peak time: Table 1, overnight-fasted Wistar rats, oral 35 μmol/kg (5 ml/kg); for Δ^13C(‰) peak value: exhaled CO2; for Peak time: peak in time course of Δ13C(‰) up to 20 min; for Δ^13C(‰) value at 10 min after the administration / Δ^13C(‰) value at 15 min after the administration / Δ^13C(‰) value at 5 min after the administration / Δ^13C(‰) value at 20 min after the administration: normal rats, mean±SD; for Δ^13C(‰) value at 10 min after the administration / Δ^13C(‰) value at 15 min after the administration / Δ^13C(‰) peak value compared with the peak value of Bz-Ala-(^13C-Ala)-ONa / Δ^13C(‰) value at 5 min after the administration / Δ^13C(‰) value at 20 min after the administration: oral 35 μmol/kg; for Δ^13C(‰) peak value compared with the peak value of Bz-Ala-(^13C-Ala)-ONa: rats, comparison in words
Protocol: (§1) Overnight-fasted rats (male, Wistar, 8-week old) in the awake state were individually fixed in a rat holder of a microwave irradiation apparatus. The breath was collected at a rate of about 100 to 300 ml/min using a stroke pump (Variable Stroke Pump VS-500; Shibata Kagaku Kogyo), and the CO2 concentration therein was maintained at about 3%. A Perma Pure drier (MD-050-12P; Perma Pure INC.) was set between the rat holder and the stroke pump to remove water vapor from the breath. When the CO2 concentration was stabilized, the rat was temporarily released from the rat holder. A ^13C-labeled dipeptide or a sodium salt thereof each dissolved in distilled water was administered to the stomach of the rat using an oral probe [dose: 35 μmol/kg (5 ml/kg)]. The breath was sampled with a syringe every 5 min until up to 20 min. A 15 ml sample was transferred from the syringe into a vacuum vial (10 ml), sealed and subjected to automated analysis by GC-MS (Breath MAT) [FinniganMAT]. Δ^13C(‰) was calculated from δ^13C values which are ^13C values of a sample (i.e. differences from the standard substance PDB) using the following formula. Δ^13C(‰)=(δ^13C)tmin−((δ^13C)0 min <Breath MAT Measuring Conditions>
Apparatus: Breath MAT plus (Finningan)
Using Ac-Met-(^13C-Ala)-ONa, Z-Met-(^13C-Ala)-ONa, Boc-Met-(^13C-Ala)-ONa or Boc-Phe-(^13C-Ala)-ONa [dose: 35 μmol/kg (5 ml/kg)], ^13C-breath tests were carried out in the same manner as in Example 12. The resultant Δ^13C(‰) peak values were compared with the Δ^13C(‰) peak value in the Bz-Ala-(^13C-Ala)-ONa breath test.
(§2) As in Example 12, Bz-Phe-(^13C-Ala)-ONa [dose: 12.6 mg/kg (35 μmol/kg)], Bz-Gln-(^13C-Ala)-ONa [dose: 12.0 mg/kg (35 μmol/kg)], Bz-Val-(^13C-Ala)-ONa [dose: 11.0 mg/kg (35 μmol/kg)], Bz-Tyr-(^13C-Ala)-ONa [dose: 13.2 mg/kg (35 μmol/kg)], Bz-Met-(^13C-Ala)-ONa [dose: 12.1 mg/kg (35 μmol/kg)], Bz-Ser-(^13C-Ala)-ONa [dose: 10.6 mg/kg (35 μmol/kg)], Bz-Thr-(^13C-Ala)-ONa [dose: 11.0 mg/kg (35 μmol/kg)] or Boc-Phe-(^13C-Ala)-ONa [dose: 8.84 mg/kg (24.6 μmol/kg)] was administered orally to normal rats and chronic pancreatitis rats. Then, the time course of the degree of increase of the ^13C concentration in exhaled CO2 (Δ^13C(‰)) was measured.

[2] = test system: pancreatic exocrine function; assay: 13C-dipeptide breath test in chronic pancreatitis rats (oleic acid injected into pancreatic duct); type: in vivo, rat; conditions: oral 35 μmol/kg, mean±SD
Protocol: as §1
Chronic pancreatitis rats were created according to the method of Mundlos et al., Pancreas 1:29 (1986). Oleic acid was injected into the pancreatic duct of 5-week old Wistar male rats. After breeding for 3 weeks, they were used in ^13C-dipeptide breath tests.
as §2

Δ^13C(‰) peak value [1] | Peak time [1] | Δ^13C(‰) value at 10 min after the administration [1] | Δ^13C(‰) value at 15 min after the administration [1] | Δ^13C(‰) peak value compared with the peak value of Bz-Ala-(^13C-Ala)-ONa [1] | Δ^13C(‰) value at 10 min after the administration [2] | Δ^13C(‰) value at 15 min after the administration [2] | Δ^13C(‰) value at 5 min after the administration [1] | Δ^13C(‰) value at 20 min after the administration [1] | Δ^13C(‰) value at 5 min after the administration [2] | Δ^13C(‰) value at 20 min after the administration [2] | Structure (SMILES)
47.36 ‰ | 10 min | 47.36±10.99 ‰ | 47.11±5.67 ‰ | higher | 12.67±19.74 ‰ | 19.78±24.70 ‰ | – | – | – | – | C[C@H](NC(=O)[C@@H](NC(=O)c1ccccc1)[C@@H](C)O)[13C](=O)[O-].[Na+] [Na salt of Bz-Thr-(^13C-Ala), N-benzoyl-L-threonyl-^13C-L-alanine]
52.64 ‰ | 15 min | 33.62±4.76 ‰ | 52.64±11.32 ‰ | higher | 15.65±7.93 ‰ | 24.68±9.48 ‰ | 10.33±6.34 ‰ | 45.61±5.27 ‰ | 4.35±3.11 ‰ | 29.25±9.98 ‰ | C[C@H](NC(=O)[C@H](Cc1ccc(O)cc1)NC(=O)c1ccccc1)[13C](=O)[O-].[Na+] [Na salt of Bz-Tyr-(^13C-Ala), N-benzoyl-L-tyrosyl-^13C-L-alanine]
52.89 ‰ | 15 min | 35.22±8.02 ‰ | 52.89±11.18 ‰ | higher | 10.62±12.40 ‰ | 18.80±19.39 ‰ | 13.98±6.59 ‰ | 45.38±6.53 ‰ | 2.21±2.74 ‰ | 23.95±19.38 ‰ | CC(C)[C@H](NC(=O)c1ccccc1)C(=O)N[C@@H](C)[13C](=O)[O-].[Na+] [Na salt of Bz-Val-(^13C-Ala), N-benzoyl-L-valyl-^13C-L-alanine]
